The results in this text go back to the METLIN SMRT retention time set (Domingo-Almenara et al. 2019).

The nature of this data set: gradient 5% acetonitrile 3 min, to 50% in 2 min, to 85% in 15 min, held 3 min, 100 µL/min. The following applies: column: Zorbax Extend-C18 2.1 x 50 mm; eluents: water / acetonitrile, 0.1% formic acid. In outline:
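Retention time was recorded from adduct peaks, which were picked computationally and each inspected manually. Pure standards ran in mixtures of ~100 molecules on HPLC coupled to a quadrupole time-of-flight mass spectrometer, in positive and negative ionization mode, through a Zorbax Extend-C18 column (2.1 × 50 mm, 1.8 μm) at 100 μL/min. Eluents were water and acetonitrile, each with 0.1% formic acid.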
For `COCCn1cc(CC(=O)N2CCN(c3ccccn3)CC2)c2cccnc21`, the RP-LC retention time was 569 s.

Turning to `Nc1ccc(C(=O)C(=O)c2ccc(N)cc2)cc1`, the RP-LC retention time is 730 s.

Consider `Cc1nc(Cn2cccc2C(=O)N2CCN(c3cccc(Cl)c3)CC2)no1`, for which the RP-LC retention time was 974 s.

Regarding `O=C(c1ccc2nc[nH]c2c1)N1CCCN(c2cc(-c3ccc(Cl)cc3)[nH]n2)CC1`, the RP-LC retention time turned out to be 620 s.

`Cc1ccc(Cl)cc1-n1ncc2c(=O)n(Cc3nc(-c4cccc(F)c4)no3)cnc21` gave an RP-LC retention time of 1210 s.

`C[C@@H]1CN(CCCn2c3ccccc3c3ccccc32)C[C@H](C)N1` showed an RP-LC retention time of 712 s.

Molecule `Cn1cc(-c2nc(C(=O)NCc3ccccc3Cl)cs2)c2cccnc21` returned an RP-LC retention time of 989 s.

In the case of `CC(C)c1ccc(N2C=C(C#N)S(=O)(=O)c3ccccc32)cc1`, the RP-LC retention time was 1040 s.

`Cc1ccccc1C(=O)Nc1c(-c2ccccc2)nc2ccccn12` came in with an RP-LC retention time of 634 s.

Consider `Cc1c(C(=O)N2CCN=C2SCc2cccnc2)cccc1[N+](=O)[O-]`, for which the RP-LC retention time came to 577 s.

Molecule `O=C(NCC(F)(F)F)C1CN(C(=O)COc2ccccc2F)C1` showed an RP-LC retention time of 666 s.

With `Cc1cccc(Nc2c(-c3ccc(Cl)cc3)nc3cnccn23)c1C`, the RP-LC retention time is 1110 s.

`Cc1cccc(Nc2c(-c3ccc(N4CCOCC4)cc3)nc3cnccn23)c1C`: the RP-LC retention time is 867 s.

On to `Cc1ccc(-c2noc(-c3ccccc3S(=O)(=O)N3CCCCC3)n2)cc1`, for which the RP-LC retention time stood at 1210 s.

For the molecule `Cc1cc2nn(CC(=O)N3CCC(C)CC3)c(=O)n2c(Nc2ccc(F)cc2)n1`, the RP-LC retention time stood at 990 s.

Molecule `Cc1cccc(NC(=O)C2CCCCN2S(=O)(=O)c2cccs2)n1` (stereo not drawn) returned an RP-LC retention time of 807 s.

Turning to `Cc1cnc(-n2nnc(C(=O)N3CCN(C(=O)c4ccco4)CC3)c2C)s1`, the RP-LC retention time was found to be 687 s.

`O=C(CNC(=O)c1c[nH]c2ccccc12)Nc1cc(Cl)ccc1O`: the RP-LC retention time was found to be 695 s.

As for `CCOCCCNC(=O)CCc1nnc2c3cc(-c4ccc(C)c(C)c4)nn3ccn12`, the RP-LC retention time worked out at 753 s.

As to `Cn1ccc2cc(S(=O)(=O)N3CCCC(C(=O)NC4CCCCCC4)C3)ccc21` (stereo not drawn), the RP-LC retention time was 1010 s.

For the molecule `CCc1ccc(Nc2nc(C(=O)NCc3ccc(C)o3)nc3ccccc23)cc1`, the RP-LC retention time was found to be 923 s.

With `O=C(CN1CCCCC1c1nc(-c2cccc(F)c2)no1)Nc1ccccc1F` (stereo not drawn), the RP-LC retention time came to 1230 s.

Consider `O=C(Cc1csc(Nc2cccc(Cl)c2)n1)NCc1cccnc1`, for which the RP-LC retention time is 575 s.

Take `CNC(=O)C1CCCN(C(=O)Nc2ccc(NC(=O)Nc3ccc(C)cc3)cc2)C1` (stereo not drawn): the RP-LC retention time worked out at 883 s.

The molecule `O=C(NC1CCCC1)c1nnn(-c2ccc(F)cc2)c1-c1ccncc1` showed an RP-LC retention time of 788 s.

In turn, `Cc1c(F)cccc1NC(=O)c1cc2n(n1)CCCC2` displayed an RP-LC retention time of 931 s.

`CCCNc1cc(N2CCCC(CCC(=O)Nc3ccccc3CC)C2)ncn1` (stereo not drawn) returned an RP-LC retention time of 735 s.

On to `Cc1cc(C)c(NC(=O)Cn2cccc(-c3nc(-c4ccc(Br)cc4)no3)c2=O)c(C)c1`, for which the RP-LC retention time amounted to 1030 s.

The molecule `O=C(COc1ccc2c(c1)C(=O)CC2)NCCC1=CCCCC1` registered an RP-LC retention time of 827 s.

As to `COCCNC(=O)N1CCCN(C2=NS(=O)(=O)C(c3ccc(C)c(C)c3)=C2C)CC1`, the RP-LC retention time was 738 s.

For `CCOCCCNC(=O)C1CCCN(c2nnc(C)c3c(C)n(-c4ccc(Cl)cc4)nc23)C1` (stereo not drawn), the RP-LC retention time was 688 s.

Molecule `CCOc1ccc(NC(=O)N2CCC(N(C)C(C)C)CC2)cc1` came in with an RP-LC retention time of 588 s.

As for `COc1cc(Cl)c(NC(=O)Cn2cc(-c3nnc(C)o3)c3ccccc32)c(OC)c1`, the RP-LC retention time was 836 s.

In the case of `COc1ccc(S(=O)(=O)NCc2cccnc2-c2ccc(F)cc2)cc1`, the RP-LC retention time turned out to be 714 s.

Regarding `CCOC(=O)c1cccc(N2C=C(C#N)S(=O)(=O)c3ccccc32)c1`, the RP-LC retention time came out at 898 s.

With `c1ccc(-c2nc(-c3ccncc3)no2)c(OC2CCN(C3CCCC3)C2)c1` (stereo not drawn), the RP-LC retention time was 667 s.

In the case of `CO[C@H]1CN(C2CCN(Cc3ccc(C)o3)CC2)[C@H]1c1ccncc1`, the RP-LC retention time turned out to be 588 s.

`OC(CN1CCN(c2ccccn2)CC1)c1ccc2c(c1)OCO2` (stereo not drawn) returned an RP-LC retention time of 539 s.

`Cc1cccc(-c2nc(Cn3nnc(C(=O)NCc4ccc(C(F)(F)F)cc4)c3C)c(C)o2)c1` gave an RP-LC retention time of 1210 s.

Molecule `CCn1cc(-c2nc(-c3ccccn3)no2)c(=O)c2cc(F)c(N3CCOCC3)cc21` showed an RP-LC retention time of 744 s.

`O=C(CCC(=O)OCc1ccc(Br)cc1)Nc1nc(-c2ccccc2)cs1` returned an RP-LC retention time of 1130 s.

Consider `CCN(C(=O)Cn1c(N2CCCCC2)nc(C)cc1=O)c1ccccc1`, for which the RP-LC retention time was found to be 661 s.

The molecule `COc1cccc(N2CC(C(=O)Nc3nnc(-c4csc(C)n4)o3)CC2=O)c1` (stereo not drawn) gave an RP-LC retention time of 817 s.

`Fc1ccc(-c2noc(-c3ccc(N4CCOCC4)nc3)n2)cc1`: the RP-LC retention time was 1080 s.

As for `COc1cccc(CNC(=O)Nc2cc3c(cc2Oc2ccccc2)n(C)c(=O)n3C)c1`, the RP-LC retention time was found to be 840 s.

Consider `CCOC(=O)c1cnn(-c2ccc(C(=O)NCc3ccco3)cn2)c1C`, for which the RP-LC retention time was determined as 804 s.

Molecule `N#Cc1ccc(C(=O)NCc2[nH]nc3ccccc23)cc1` displayed an RP-LC retention time of 699 s.

`CN1CCCc2cc(C(CNC(=O)C(=O)Nc3ccc4c(c3)OCCO4)N3CCCCC3)ccc21` (stereo not drawn) showed an RP-LC retention time of 742 s.

The molecule `O=C(Cc1c[nH]c2ccccc12)Nc1cc(-c2ccsc2)no1` returned an RP-LC retention time of 876 s.

`Cc1ccn2c(NC(=O)COc3ccccc3)c(-c3ccccc3)nc2c1` had an RP-LC retention time of 683 s.

Molecule `Cc1ccc(CNC(=O)Cn2nc3n(c2=O)CCCCC3)cc1` displayed an RP-LC retention time of 675 s.

The molecule `Cc1nc(-c2cnccn2)n(CC(=O)Nc2cccc(C#N)c2)c(=O)c1C` yielded an RP-LC retention time of 711 s.

As to `CC(=O)N1CCc2cc(N3CC(C(=O)NC(C)c4ccc(C)cc4C)CC3=O)ccc21` (stereo not drawn), the RP-LC retention time came out at 772 s.

For the molecule `Cc1ccc(Cl)cc1NC(=O)N(C)CC1CCOCC1`, the RP-LC retention time amounted to 761 s.

`COCCC(=O)NC1CCN(C2=NS(=O)(=O)C(c3ccc(C)c(C)c3)=C2C)CC1` had an RP-LC retention time of 722 s.

Regarding `COCCc1noc(C2CN(C(=O)C(C)C)C2)n1`, the RP-LC retention time was determined as 621 s.

In turn, `Cc1cc(C)n(-c2cc(N3CCN(c4nc(-c5ccccc5)cs4)CC3)ccc2[N+](=O)[O-])n1` registered an RP-LC retention time of 1190 s.

Molecule `CCS(=O)(=O)c1ccc2c(c1)N(Cc1nc(-c3ccc(OC(C)C)cc3)no1)C(=O)CO2` returned an RP-LC retention time of 991 s.

`CCOc1ccc(-c2csc(NC(=O)CCc3ccccc3)n2)cc1`: the RP-LC retention time was found to be 1120 s.

Molecule `CC(C)Cn1cc(CCNS(=O)(=O)c2ccc(Cl)s2)c2cccnc21` yielded an RP-LC retention time of 987 s.

`COc1ccc(C(=O)N2CCC3(CC2)NC(=O)c2ccc(Cl)cc2N3)cc1OC` had an RP-LC retention time of 692 s.

In the case of `Cc1ccc(-n2ncc3c(=O)n(Cc4nc(-c5ccc(OC(F)(F)F)cc5)no4)cnc32)cc1`, the RP-LC retention time is 1200 s.

As for `COc1ccc(Cl)cc1S(=O)(=O)N1CCc2nn(CC3CC3)c(=O)n2CC1`, the RP-LC retention time was 800 s.

In turn, `CCN1c2ccc(C)cc2C(=O)NC12CCN(C(=O)c1ccc(OC)cc1OC)CC2` had an RP-LC retention time of 774 s.

Regarding `Cc1nc(-c2ccc(N3CCN(C(=O)c4ccc(F)c(F)c4)CC3)nc2)sc1C`, the RP-LC retention time was 976 s.

`CC(=O)c1ccc(N2CCN(C(=O)C3Oc4ccccc4NC3=O)CC2)cc1` (stereo not drawn) came in with an RP-LC retention time of 723 s.

`CCCCNC(=O)c1ccc(-c2ccc3c(c2)CCN3C(C)=O)cc1` displayed an RP-LC retention time of 832 s.

Consider `Cc1ccc2c(c1)sc1nc(C)c(S(=O)(=O)Nc3ccc(Cl)cc3)c(=O)n12`, for which the RP-LC retention time was found to be 1160 s.

Turning to `O=C1COc2ccc(Cl)cc2N1Cc1nc(-c2ccc(N3CCOCC3)cc2)no1`, the RP-LC retention time came to 1000 s.

`O=C(Cn1c(N2CCCCC2)nc2ccccc2c1=O)N1CCN(c2ccccn2)CC1`: the RP-LC retention time worked out at 643 s.

Consider `O=C(COc1ccccc1F)Nc1ccc2c(c1)N(C(=O)c1ccco1)CCC2`, for which the RP-LC retention time turned out to be 834 s.

In turn, `CCCCN(CCCC)C(=O)C1CCN(S(=O)(=O)c2ccc3c(c2)CCCC(=O)N3)CC1` came in with an RP-LC retention time of 905 s.

Regarding `Cc1ccccc1CNC(=O)C1CCCN(S(=O)(=O)c2c[nH]c(C(=O)N3CCCC3)c2)C1` (stereo not drawn), the RP-LC retention time is 877 s.

In turn, `COc1ccc(-c2noc(Cn3nc(-c4ccc(C)cc4)ccc3=O)n2)cc1OC` showed an RP-LC retention time of 962 s.

The molecule `Cc1ccc(-c2cc3c4nn(CC(=O)NCc5ccco5)c(=O)n4ccn3n2)cc1C` came in with an RP-LC retention time of 874 s.

Consider `CC(C)CN1CCn2cc(S(=O)(=O)Nc3ccc(F)c(F)c3)cc2C1=O`, for which the RP-LC retention time was found to be 842 s.

`CCn1cc(C(=O)Nc2cccc(Br)c2)c2nn(-c3ccccc3)c(=O)c-2c1` showed an RP-LC retention time of 1090 s.

`COc1ccc2c(c1)c(N1CCCC1=O)c(C(=O)NCCc1ccc(OC)c(OC)c1OC)n2C` yielded an RP-LC retention time of 858 s.
